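Five concentrations, 48 hours, 96-well plates. GI50 marks 50% less growth.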 The source made the active and inactive calls. No stated cut-off is given here; in the data, active = GI50 up to about 1.1 µM and inactive = higher.
Columns and labels:
Test in all cases: NCI tumour cell line growth inhibition, 48 h
[1] = tested on: BT-549
[2] = tested on: CAKI-1
[3] = tested on: DU-145
[4] = tested on: HCT-15
[5] = tested on: HOP-92
[6] = tested on: HT-29
[7] = tested on: NCI/ADR-RES
[8] = tested on: SF-539
[9] = tested on: SNB-19
[10] = tested on: SW-620
[11] = tested on: CCRF-CEM
[12] = tested on: Hs-578T
[13] = tested on: NCI-H522
[14] = tested on: PC-3

| SMILES | GI50 [1] | GI50 [2] | GI50 [3] | GI50 [4] | GI50 [5] | GI50 [6] | GI50 [7] | GI50 [8] | GI50 [9] | GI50 [10] | GI50 [11] | GI50 [12] | GI50 [13] | GI50 [14] |
| --- | --- | --- | --- | --- | --- | --- | --- | --- | --- | --- | --- | --- | --- | --- |
| CC(=O)/C(=C/NC(=S)Nc1ccc(Cl)c(Cl)c1)C(=O)Nc1ccccc1C | 25.5 µM (inactive) | 22.3 µM (inactive) | 26.4 µM (inactive) | 29.6 µM | 22 µM (inactive) | 22.3 µM (inactive) | 18.7 µM (inactive) | 14.5 µM (inactive) | 26.8 µM (inactive) | 44.1 µM (inactive) |  |  |  |  |
| CCCNC(=O)NNC(=O)c1c[nH]c2nc(C)ccc2c1=O | > 100 µM (inactive) | > 100 µM (inactive) | > 100 µM (inactive) | > 100 µM |  | > 100 µM (inactive) | > 100 µM (inactive) |  | > 100 µM (inactive) | > 100 µM (inactive) | > 100 µM (inactive) | > 100 µM (inactive) | > 100 µM (inactive) | > 100 µM (inactive) |
| CC(=NNC(=S)Nc1ccccc1C)c1cccc(C(C)=NNC(=S)Nc2ccccc2C)n1 |  | 42.9 µM (inactive) | 23.1 µM (inactive) | 8.63 µM | 11.4 µM (inactive) | 39 µM (inactive) | 18.6 µM (inactive) | 6.68 µM (inactive) | > 100 µM (inactive) | 57.5 µM (inactive) | 3.59 µM (inactive) |  |  | 32.1 µM (inactive) |
| COC(=O)CNS(=O)(=O)c1ccc(-c2c3nc(c(-c4ccc(S(=O)(=O)NCC(=O)OC)cc4)c4ccc([nH]4)c(-c4ccc(S(=O)(=O)NCC(=O)OC)cc4)c4nc(c(-c5ccc(S(=O)(=O)NCC(=O)OC)cc5)c5ccc2[nH]5)C=C4)C=C3)cc1 | > 100 µM (inactive) | > 100 µM (inactive) | > 100 µM (inactive) | > 100 µM |  | > 100 µM (inactive) | > 100 µM (inactive) | > 100 µM (inactive) | > 100 µM (inactive) | > 100 µM (inactive) | > 100 µM (inactive) | > 100 µM (inactive) | > 100 µM (inactive) | > 100 µM (inactive) |
| COc1c(CCl)cc(-c2cc(=O)c3ccccc3s2)cc1CCl | 36.6 µM (inactive) | 7.62 µM (inactive) | > 100 µM (inactive) | > 100 µM | 0.0449 µM (active) |  |  | 6.55 µM (inactive) | 29.3 µM (inactive) |  | 2.24 µM (inactive) | 9.57 µM (inactive) | 1.99 µM (inactive) | > 100 µM (inactive) |
| N#Cc1nc(COCCOCc2ccc(F)cc2)oc1N | > 100 µM (inactive) | > 100 µM (inactive) | > 100 µM (inactive) | > 100 µM |  | > 100 µM (inactive) | > 100 µM (inactive) | > 100 µM (inactive) |  | > 100 µM (inactive) | 64.6 µM (inactive) |  | 29 µM (inactive) | > 100 µM (inactive) |
| COc1ccc2nc3c([N+](=O)[O-])ccc(NCCN(C)C)c3c(N)c2c1 |  | 1.8 µM (inactive) | 1.75 µM (inactive) | 1.16 µM | 0.695 µM (active) | 0.508 µM (active) | 0.847 µM (active) | 1.56 µM (inactive) | 1.84 µM (inactive) | 0.181 µM (active) | 0.17 µM (active) | 2.62 µM (inactive) |  | 1.46 µM (inactive) |
| C/C(Cl)=N\OC(=O)Nc1ccc(C)cc1 |  | 16.7 µM (inactive) | > 10 µM (inactive) | 15.4 µM | 20.7 µM (inactive) | 22.9 µM (inactive) | 19.7 µM (inactive) | 18.7 µM (inactive) | > 100 µM (inactive) | 16.8 µM (inactive) | 2.04 µM (inactive) | 28.6 µM (inactive) |  | 15.8 µM (inactive) |
| Cc1cc2nc3c(C#N)c4c(c(Nc5ccc(Cl)cc5)n3c2cc1C)CCC4 | 23.8 µM (inactive) | 20.5 µM (inactive) | 26.5 µM (inactive) | 18.8 µM | 23.6 µM (inactive) | 18.1 µM (inactive) | 22.6 µM (inactive) | 27.1 µM (inactive) |  | 17.9 µM (inactive) |  |  | 13.6 µM (inactive) |  |
| N#CC[C@@H](O)COc1ccccc1 | > 100 µM (inactive) | > 100 µM (inactive) | > 100 µM (inactive) | > 100 µM |  | > 100 µM (inactive) |  | > 100 µM (inactive) | > 100 µM (inactive) | > 100 µM (inactive) | > 100 µM (inactive) | > 100 µM (inactive) | > 100 µM (inactive) | > 100 µM (inactive) |
| CC(=O)Oc1cc(/C=C/c2ccc(O)cc2)cc(OC(C)=O)c1 |  | 35.7 µM (inactive) | 27.2 µM (inactive) | 26.5 µM | 25 µM (inactive) | 19.3 µM (inactive) | 16.3 µM (inactive) | 12.8 µM (inactive) | 55.8 µM (inactive) | 26.1 µM (inactive) |  | 58.5 µM (inactive) | 26 µM (inactive) | 21.5 µM (inactive) |
| COC(=O)/C=C/c1ccc2c(c1)CC1(Cc3ccccc3C1)C2 |  |  |  | > 100 µM | > 100 µM (inactive) | 79.4 µM (inactive) | > 100 µM (inactive) | > 100 µM (inactive) |  |  | 28 µM (inactive) | 23.6 µM (inactive) | 56.9 µM (inactive) | > 100 µM (inactive) |
| OC1C2CN3CCN(C2)CC1(c1ccccc1)C3 (configuration not stated) | > 100 µM (inactive) | > 100 µM (inactive) | > 100 µM (inactive) |  |  | > 100 µM (inactive) | > 100 µM (inactive) | > 100 µM (inactive) | > 100 µM (inactive) | > 100 µM (inactive) |  | > 100 µM (inactive) | > 100 µM (inactive) | > 100 µM (inactive) |
| C/C(=N/NC(=S)Nc1ccc([N+](=O)[O-])cc1)c1cccc(/C(C)=N\NC(=S)Nc2ccc([N+](=O)[O-])cc2)n1 | 0.463 µM (active) | 0.631 µM (active) |  | 0.125 µM | 0.782 µM (active) | 0.628 µM (active) | 0.469 µM (active) | 0.458 µM (active) | 1.33 µM (inactive) | 0.364 µM (active) | 0.318 µM (active) | 3.9 µM (inactive) | 0.628 µM (active) | 0.6 µM (active) |
| CSS(C)(=O)=O |  | 22.8 µM (inactive) | 21.5 µM (inactive) | 24.9 µM |  | 31 µM (inactive) | 58.9 µM (inactive) | 20.4 µM (inactive) | > 100 µM (inactive) | 46.7 µM (inactive) | < 0.01 µM (active) | 49.2 µM (inactive) | 18.2 µM (inactive) | 18 µM (inactive) |
| c1ccc(-c2ccc(-c3ccc(C4=NCCN4)cc3)o2)cc1 | 6.28 µM (inactive) | 2.34 µM (inactive) | 3.25 µM (inactive) | 1.87 µM | 2.17 µM (inactive) | 1.77 µM (inactive) | 4.3 µM (inactive) | 2.11 µM (inactive) | 2.4 µM (inactive) | 2 µM (inactive) | 1.56 µM (inactive) |  | 2.02 µM (inactive) | 2.23 µM (inactive) |
| CCOP(C)(=O)C(Cc1c[nH]c2ccccc12)C(=O)O (configuration not stated) | > 100 µM (inactive) | > 100 µM (inactive) | > 100 µM (inactive) | > 100 µM | > 100 µM (inactive) | > 100 µM (inactive) | > 100 µM (inactive) | > 100 µM (inactive) | > 100 µM (inactive) | > 100 µM (inactive) | > 100 µM (inactive) |  | > 100 µM (inactive) | > 100 µM (inactive) |
| N#C/C(=C1/c2cc([N+](=O)[O-])ccc2-c2c1cc([N+](=O)[O-])cc2[N+](=O)[O-])N1CCCCC1 | > 100 µM (inactive) | > 100 µM (inactive) | 38.5 µM (inactive) | > 100 µM |  | > 100 µM (inactive) | 51.3 µM (inactive) |  | > 100 µM (inactive) | > 100 µM (inactive) | > 100 µM (inactive) | 43.7 µM (inactive) | 46.6 µM (inactive) | > 100 µM (inactive) |
| CCOC(=O)c1c(-c2ccc(OC)cc2)c(C#N)c(=S)n(C2OC(COC(C)=O)C(OC(C)=O)C(OC(C)=O)C2OC(C)=O)c1C (configuration not stated) |  | > 100 µM (inactive) | > 100 µM (inactive) | > 100 µM | 4.32 µM (inactive) | > 100 µM (inactive) | > 100 µM (inactive) | > 100 µM (inactive) | > 100 µM (inactive) | > 100 µM (inactive) | 61.9 µM (inactive) |  | 70.8 µM (inactive) | 30.8 µM (inactive) |
| O=S(=O)(O)c1cc(/N=N/c2c(O)ccc3ccccc23)cc2c(S(=O)(=O)O)cccc12 | > 100 µM (inactive) | > 100 µM (inactive) |  | > 100 µM | > 100 µM (inactive) | > 100 µM (inactive) | > 100 µM (inactive) | > 100 µM (inactive) | > 100 µM (inactive) | > 100 µM (inactive) | > 100 µM (inactive) | > 100 µM (inactive) | > 100 µM (inactive) | > 100 µM (inactive) |
| CC(NO)/C(=N/O)c1ccco1 (configuration not stated) | > 10 µM (inactive) | > 10 µM (inactive) | > 10 µM (inactive) | > 10 µM | > 10 µM (inactive) | > 10 µM (inactive) | > 10 µM (inactive) |  | > 10 µM (inactive) | > 10 µM (inactive) | > 10 µM (inactive) |  | > 10 µM (inactive) | > 10 µM (inactive) |
| Cc1nc2ccc(F)cc2c2c1CCO2 | 80 µM (inactive) | 15.2 µM (inactive) | > 100 µM (inactive) | > 100 µM | 78.7 µM (inactive) | 82.6 µM (inactive) | > 100 µM (inactive) | > 100 µM (inactive) | > 100 µM (inactive) | > 100 µM (inactive) | > 100 µM (inactive) | > 100 µM (inactive) | > 100 µM (inactive) |  |
| Cc1ccc2c(c1)C(=O)C1(C2)Cc2ccc(C)cc2C1=O |  | > 100 µM (inactive) | > 100 µM (inactive) | > 100 µM | > 100 µM (inactive) | > 100 µM (inactive) | > 100 µM (inactive) | > 100 µM (inactive) | > 100 µM (inactive) | > 100 µM (inactive) | > 100 µM (inactive) | > 100 µM (inactive) | > 100 µM (inactive) | > 100 µM (inactive) |
